Key:
[1] = test system: PC9 cells; experiment: Assessment of senescence, autofluorescence by flow cytometry, PC9; assay type: cell-based; conditions: PC9, NGI-1 treatment for 5 days
Procedure: (§1) FIGS. 5A-5G illustrate NGI-1 induces G1 arrest and senescence in EGFR addicted tumor cells. FIG. 5A illustrates cell cycle distribution of PC9 cells after 24 h NGI-1 treatment for 24 h determined by flow cytometry. […] FIG. 5B illustrates cell cycle distribution of A549 cells after 24 h NGI-1 treatment for 24 h determined by flow cytometry. FIG. 5C illustrates western blot time course of cyclin D1 expression in PC9 and A549 cells after NGI-1 treatment. FIG. 5D illustrates quantitative real-time PCR analysis of PC9 and A549 cells. A time course of cyclin D1 expression levels relative to GAPDH is represented. […] FIG. 5F illustrates senescence of PC9 cells explored by: cell autofluorescence, measured by flow cytometry using a detector for PE/YFP; lipofuscin accumulation, detected by confocal laser scanning microscopy using an excitation laser of 405 nm with acquired signals from spectrums of yellow 575-620 nm; and morphology changes, enlarged vs. flattened. […] Significance was calculated using a T test (*p<0.05. **p<0.01). FIG. 5G illustrates senescence of A549 cells explored by: cell autofluorescence, measured by flow cytometry using a detector for PE/YFP; lipofuscin accumulation, detected by confocal laser scanning microscopy using an excitation laser of 405 nm with acquired signals from spectrums of yellow 575-620 nm; and morphology changes, enlarged vs. flattened. […]

[2] = test system: A549 cells; experiment: Apoptosis by flow cytometry (Annexin-V, 7-AAD), A549; assay type: cell-based; conditions: A549, NGI-1 10 μM for 2 or 5 days, or Tn 1 μM
Procedure: Analysis of apoptosis susceptibility in A549 and PC9 NSCLC cell lines followed treatment with NGI-1 10 μM or Tn 1 μM for 2 days was done by flow cytometry after staining the cells with Annexin-V (early apoptosis) and 7-AAD (viability dye). […] FIG. 9C: Western blot of BIP protein for A549 and PC9 cells after treatment with 10 μM NGI-1 for 6, 12 or 24 h. The expression of GAPDH was used as a loading control.

[3] = test system: N-linked glycosylation; experiment: D54-ERLucT cell based luciferase assay for inhibition of N-linked glycosylation
From the text: The HTS approach using the bioluminescent N-linked glycosylation reporter (CCR 2011) in D54-ERLucT and D54-LucT cells has been previously described (Bennett, et al., Transl Oncol 2013, 6, 382-391). Briefly, the primary cell-based screen detects site occupancy of NLG sequons using a modified luciferase protein translated into the ER. […] The methodology for the primary (D54-ERlucT), secondary (D54-LucT), and tertiary (luciferase inhibition) screens as well and toxicity assays with CelltitreGlo are deposited in Pubchem (AID 588693).
The primary screen was developed in the D54 glioma cell line using a modified P. pyralis luciferase gene (ER-LucT) that is ER translated and glycosylated at three N-linked glycosylation consensus sequences. Glycosylation of the reporter inactivates luciferase enzymatic activity providing a robust methodology to detect inhibition of this process. D54 cells expressing a non-ER translated luciferase (LucT) insensitive to inhibition of N-linked glycoysation were used as a secondary screen for false positives. The primary screen was performed in duplicate and values were normalized to the average of positive control wells (Tunicamycin) minus averaged neutral vehicle treated wells per run. Compounds with replicate activity greater than three standard deviations above the mean average of control wells were selected for further study. A subset of 1,845 compounds met this criterion, and were advanced to simultaneous retesting in both the primary screen and a secondary (false positive) cell-based screen. […] Compounds were further triaged from consideration by consulting the Pubchem bioassay database and deprioritizing compounds showing a promiscuity rate higher than 5% across assays or by removing PAINS scaffolds (Baell, et al., J Med Chem 2010, 53, 2719-2740). Remaining compounds were assessed by medicinal chemistry review to score synthetic tractability and known issues with instability, poor solubility, or toxicity. This analysis yielded 39 compounds that were tested in a cell-free assay to detect luciferase inhibitors (Auld, et al., Proc Natl Acad Sci USA 2010, 107, 4878-4883) and by western blot analysis to detect gel mobility changes of the luciferase reporter, consistent with inhibition of N-linked glycosylation. This approach identified one aminobenzamidosulfonamide compound that blocked N-linked glycosylation.
To better understand the connection between structure and activity, analogs were prepared and tested in the D54-ERLucT cell based assay for inhibition of N-linked glycosylation (FIG. 1B). The assay was used to estimate and compare AC40 values among analogs and to guide the design of improved compounds that inhibited N-linked glycosylation. This effort generated 36 unique compounds with modifications to the amine component of the sulfonamide functionality (red), the pyrrolidine moiety (blue) or the methylaminothiazole group (green). Generally, incorporation of larger sulfonamides (i.e., larger secondary amines appended to the sulphone) was not well tolerated, resulting in erosion of potency (7 analogs). However, steric interactions could be mitigated by the introduction of a hydrogen bond accepting oxygen in a larger cyclic amine. Thus, morpholine was determined to be an acceptable surrogate for the dimethylamine component of the sulfonamide (FIGS. 1A-1D). The pyrrolidine group (blue) was replaced with various alkyl, cycloalkyl, and amine groups (7 compounds). The aminothiazole moiety was derivatized most extensively of all three regions (green highlighted area, 22 analogs). […] Analogs with the highest potency in the luciferase assay were retested with western blot analysis to insure that measurements of luciferase activation corresponded to loss of N-linked glycosylation.

[4] = test system: A549 cells; experiment: Cell cycle distribution by flow cytometry, A549; assay type: cell-based; conditions: A549, NGI-1 24 h
Procedure: as §1

[5] = D54-ERLucT cells, luciferase activation

Cc1cnc(NC(=O)c2cc(S(=O)(=O)N(C)C)ccc2N2CCCC2)s1 [NGI-1, 5-(N,N-Dimethylsulfamoyl)-N-(5-methylthiazol-2-yl)-2-(pyrrolidin-1-yl)benzamide]
increase of autofluorescence by flow cytometry [1]: < 60%
induction of apoptosis [2]: did not induce apoptosis
NLG Inhibition ASSAY Potency Mean AC40 [3, 5]: 0.17 µM
NLG Inhibition max act, % [3, 5]: 321.4%
IC50 ([3]; luminescent activity, estimated, FIG. 1C, read-out: IC50 in intact D54 ER-LucT cells in culture): 1060 nM
cell cycle distribution [4]: did not significantly change the cell cycle distribution
